Laboratory results: patent US9765037B2, “Compositions and methods for treating toxoplasmosis, cryptosporidiosis, and other apicomplexan protozoan related diseases” (University of Washington Through its Center for …, priority 2010, dated 2017)
Where two headings read alike, the source gives them in different places.

Tests used:
TgCDPK1 = TgCDPK1 (Toxoplasma gondii, UniProt Q9BJF5); format: biochemical; settings: for IC50: read-out: IC50 (μM) TgCDPK1
PfCDPK1 = PfCDPK1 (Plasmodium falciparum (isolate 3D7), UniProt P62344); assay: biochemical; settings: for inhibition at 3 µM: read-out: PfCDPK1 (% inhibition @ 3 uM)
PfCDPK4 = PfCDPK4 (Plasmodium falciparum (isolate 3D7), UniProt Q8IBS5); assay: biochemical; settings: for inhibition at 3 µM: read-out: PfCDPK4 (% inhibition @ 3 uM)
[1] = system: human promyelocytic leukemia (HL-60); assay: Growth inhibition of human cell line HL-60; settings: 10 μM
[2] = system: human lymphocyte (CRL8155); assay: Growth inhibition of human cell line CRL8155; settings: 10 μM
CpCDPK1 = CpCDPK1 (Cryptosporidium parvum (strain Iowa II), UniProt A3FQ16); assay: biochemical; format: biochemical; settings: read-out: IC50 (μM) CpCDPK1
Sequence of CpCDPK1 (A3FQ16 1-538): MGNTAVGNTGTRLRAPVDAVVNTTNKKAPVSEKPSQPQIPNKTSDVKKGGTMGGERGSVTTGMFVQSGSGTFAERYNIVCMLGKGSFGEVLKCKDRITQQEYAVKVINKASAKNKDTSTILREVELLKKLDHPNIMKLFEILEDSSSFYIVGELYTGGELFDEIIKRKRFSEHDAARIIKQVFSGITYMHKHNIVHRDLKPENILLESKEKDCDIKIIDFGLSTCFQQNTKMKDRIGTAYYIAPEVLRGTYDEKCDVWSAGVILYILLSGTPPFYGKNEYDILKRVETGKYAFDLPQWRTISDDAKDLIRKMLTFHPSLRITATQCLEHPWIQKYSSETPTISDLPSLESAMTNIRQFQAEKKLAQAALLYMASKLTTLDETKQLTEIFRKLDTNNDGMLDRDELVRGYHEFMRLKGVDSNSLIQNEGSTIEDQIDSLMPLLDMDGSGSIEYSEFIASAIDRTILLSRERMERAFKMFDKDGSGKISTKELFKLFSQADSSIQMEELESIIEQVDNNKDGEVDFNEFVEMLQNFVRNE

Sequence of TgCDPK1 (Q9BJF5 1-507): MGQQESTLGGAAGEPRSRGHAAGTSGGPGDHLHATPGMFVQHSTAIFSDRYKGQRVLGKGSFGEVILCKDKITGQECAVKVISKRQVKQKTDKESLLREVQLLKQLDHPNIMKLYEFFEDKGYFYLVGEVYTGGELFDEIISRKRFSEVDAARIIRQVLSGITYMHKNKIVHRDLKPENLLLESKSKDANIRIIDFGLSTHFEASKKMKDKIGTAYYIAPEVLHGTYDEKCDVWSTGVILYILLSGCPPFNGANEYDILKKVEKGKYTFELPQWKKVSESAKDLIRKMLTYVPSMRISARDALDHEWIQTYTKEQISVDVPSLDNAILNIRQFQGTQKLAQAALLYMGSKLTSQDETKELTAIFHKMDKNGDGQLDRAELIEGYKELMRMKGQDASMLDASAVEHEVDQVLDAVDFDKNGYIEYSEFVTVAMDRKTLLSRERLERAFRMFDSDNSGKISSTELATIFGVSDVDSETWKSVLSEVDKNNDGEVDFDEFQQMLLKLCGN

Compound | EC50 (PfCDPK1) | EC50 (PfCDPK4) | Cell Toxicity HL60, % at 10 μM [1] | Cell Toxicity CRL8155, % at 10 μM [2] | other results
CC(C)n1nc(-c2cccc(OCc3ccccc3)c2)c2c(N)ncnc21 [Compound 7aa, 3-(3-(benzyloxy)phenyl)-1-isopropyl-1H-pyrazolo[3,4-d]pyrimidin-4-amine] |  |  |  |  | inhibition of TgCDPK1 (in words) (TgCDPK1): neither kinase is inhibited; IC50 (TgCDPK1): 1.06 µM
CC(C)n1nc(-c2ccc3cc(OCc4cc(F)cc(Cl)c4)ccc3c2)c2c(N)ncnc21 [Compound 52, 3-(6-(3-chloro-5-fluorobenzyloxy)naphthalen-2-yl)-1-isopropyl-1H-pyrazolo[3,4-d]pyrimidin-4-amine] | 1070 nM | 1230 nM |  |  | 
NCCCCCC(=O)Nc1nc2ccc(C(=O)c3ccccc3)cc2[nH]1 [Compound 105] |  |  | <30% at 10 μM | <30% at 10 μM | 
CC(C)COc1ccc2cc(-c3nn(C(C)(C)C)c4ncnc(N)c34)ccc2c1 [Compound 130] | 2950 nM | > 3000 nM |  |  | 
COc1ccc(-c2nn(C(C)C)c3ncnc(N)c23)cc1C [Compound 7m, 1-isopropyl-3-(4-methoxy-3-methylphenyl)-1H-pyrazolo[3,4-d]pyrimidin-4-amine] |  |  |  |  | IC50 (CpCDPK1): 0.017 µM
CC(C)n1nc(-c2cccc(Cc3ccccc3)c2)c2c(N)ncnc21 [Compound 7y, 3-(3-benzylphenyl)-1-isopropyl-1H-pyrazolo[3,4-d]pyrimidin-4-amine] |  |  |  |  | inhibition of TgCDPK1 (in words) (TgCDPK1): neither kinase is inhibited; IC50 (TgCDPK1): 0.322 µM
CC(C)n1nc(-c2ccc3cc(OCc4ccncc4)ccc3c2)c2c(N)ncnc21 [Compound 55, 1-isopropyl-3-(6-(pyridin-4-ylmethoxy)naphthalen-2-yl)-1H-pyrazolo[3,4-d]pyrimidin-4-amine] | 216 nM | 175 nM |  |  | 
CC(C)(C)c1nc(-c2cnc3ccccc3c2)c2c(N)nccn12 [Compound 72, 3-tert-butyl-1-(quinolin-3-yl)imidazo[1,5-a]pyrazin-8-amine] | 948 nM | 241 nM | <30% at 10 μM | <30% at 10 μM | 
Cc1ccc(C(F)(F)F)cc1COc1ccc2cc(-c3nn(C(C)C)c4ncnc(N)c34)ccc2c1 [Compound 50, 1-isopropyl-3-(6-(2-methyl-5-(trifluoromethyl)benzyloxy)naphthalen-2-yl)-1H-pyrazolo[3,4-d]pyrimidin-4-amine] | 2090 nM | > 3000 nM |  |  | 
Nc1ncnc2c1c(I)nn2CC1CCNCC1 [Compound 98] |  |  | <30% at 10 μM | <30% at 10 μM | 
Cc1cccc(-c2nn(C(C)C)c3ncnc(N)c23)c1 [Compound 7g, 1-isopropyl-3-m-tolyl-1H-pyrazolo[3,4-d]pyrimidin-4-amine] |  |  |  |  | IC50 (CpCDPK1): 0.114 µM; inhibition at 3 µM (PfCDPK1): 72%; inhibition at 3 µM (PfCDPK4): 64%
CC(C)n1nc(-c2ccc3cc(OCc4ccccc4Cl)ccc3c2)c2c(N)ncnc21 [Compound 46, 3-(6-(2-chlorobenzyloxy)naphthalen-2-yl)-1-isopropyl-1H-pyrazolo[3,4-d]pyrimidin-4-amine] | 477 nM | > 3000 nM | <30% at 10 μM | <30% at 10 μM | 
CC(C)n1nc(-c2ccc3c(ccn3C)c2)c2c(N)ncnc21 [Compound 20, 1-isopropyl-3-(1-methyl-1H-indol-5-yl)-1H-pyrazolo[3,4-d]pyrimidin-4-amine] | 309 nM | 231 nM | <30% at 10 μM | <30% at 10 μM | IC50 (CpCDPK1; Table 8): 0.003 µM
CC(C)(C)n1nc(-c2ccc(-c3nn(C(C)(C)C)c4ncnc(N)c34)cc2)c2c(N)ncnc21 [Compound 141] | 1470 nM | 2030 nM |  |  | inhibition at 3 µM (PfCDPK1): 92%; inhibition at 3 µM (PfCDPK4): 55%
Nc1ncnc2c1c(-c1ccc(-c3ccccc3)cc1)nn2CC1CCNCC1 [Compound 100] | 74.9 nM | 908 nM |  |  | 
Nc1ncnc2c1c(-c1ccc3cc(OCc4ccc(Cl)cc4)ccc3c1)nn2CC1CCNCC1 [Compound 39, 3-(6-(4-chlorobenzyloxy)naphthalen-2-yl)-1-(piperidin-4-ylmethyl)-1H-pyrazolo[3,4-d]pyrimidin-4-amine] | 21.1 nM | 9.2 nM |  |  | 
Cc1cccc2[nH]c(-c3nn(C(C)C)c4ncnc(N)c34)cc12 [Compound 25, 1-isopropyl-3-(4-methyl-1H-indol-2-yl)-1H-pyrazolo[3,4-d]pyrimidin-4-amine] |  | 579 nM | 47% toxicity at | 38% toxicity at | 
O=C(CCCC1CCNCC1)Nc1nc2ccc(C(=O)c3ccccc3)cc2[nH]1 [Compound 115] |  |  | <30% at 10 μM | <30% at 10 μM | 
N#Cc1cccc(-c2ccc(-c3nn(CC4CCNCC4)c4ncnc(N)c34)cc2)c1 [Compound 74, 4′-(4-amino-1-(piperidin-4-ylmethyl)-1H-pyrazolo[3,4-d]pyrimidin-3-yl)biphenyl-3-carbonitrile] | 347 nM | 1010 nM |  |  | 
